From patent US6852735B1, “Siastatin B derivatives having a glycosidase inhibitory activity and processes for producing the same” (Zaidan Hojin Biseibutsu Kagaku Kenkyu Kai, priority 1998, dated 2005) come the findings set out here.

The target of this assay is T1, β-D-galactosidase (from Aspergillus niger) (Aspergillus niger, UniProt P29853).
T1 construct: originated from Aspergillus niger; purchased Sigma Company; host or cells: Aspergillus niger
T1 sequence (P29853 20-1006): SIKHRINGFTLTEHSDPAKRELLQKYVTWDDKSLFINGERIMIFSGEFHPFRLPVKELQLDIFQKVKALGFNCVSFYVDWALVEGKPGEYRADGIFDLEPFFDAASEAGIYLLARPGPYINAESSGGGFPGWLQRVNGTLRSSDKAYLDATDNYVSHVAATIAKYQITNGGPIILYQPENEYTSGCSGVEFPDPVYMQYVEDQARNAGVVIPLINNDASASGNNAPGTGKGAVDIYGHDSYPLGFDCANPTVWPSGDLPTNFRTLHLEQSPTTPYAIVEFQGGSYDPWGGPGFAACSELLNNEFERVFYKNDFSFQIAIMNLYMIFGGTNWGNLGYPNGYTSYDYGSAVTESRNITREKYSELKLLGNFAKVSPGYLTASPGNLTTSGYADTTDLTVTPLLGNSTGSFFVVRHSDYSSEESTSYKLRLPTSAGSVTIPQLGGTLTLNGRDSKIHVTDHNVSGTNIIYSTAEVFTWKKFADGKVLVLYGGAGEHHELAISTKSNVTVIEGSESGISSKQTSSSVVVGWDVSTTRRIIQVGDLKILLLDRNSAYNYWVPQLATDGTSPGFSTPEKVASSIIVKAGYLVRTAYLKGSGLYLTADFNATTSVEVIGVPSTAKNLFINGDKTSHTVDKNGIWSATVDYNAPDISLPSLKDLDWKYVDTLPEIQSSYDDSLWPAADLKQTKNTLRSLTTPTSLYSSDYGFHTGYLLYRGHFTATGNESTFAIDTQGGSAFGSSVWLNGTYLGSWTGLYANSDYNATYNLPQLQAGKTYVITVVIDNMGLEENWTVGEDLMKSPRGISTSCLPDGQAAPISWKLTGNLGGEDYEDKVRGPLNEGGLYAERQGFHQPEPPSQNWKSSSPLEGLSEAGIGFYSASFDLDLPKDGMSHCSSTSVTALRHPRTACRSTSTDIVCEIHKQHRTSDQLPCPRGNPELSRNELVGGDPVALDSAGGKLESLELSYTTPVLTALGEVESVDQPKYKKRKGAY
As to the kind of experiment: β-galactosidase inhibition (Test Example 3). The assay is classed as biochemical. Particulars: for inhibition of β-D-galactosidase, in words: summary of Table 1. The procedure: Thus, 0.5 mL of 0.025M citrate-phosphate buffer (pH 4.0), 0.1 mL of the same buffer containing 10 mM p-nitro-phenyl-N-acetyl-α-D-galactosaminide dissolved therein, and 0.1 mL of either water or an aqueous solution containing as the test compound any one of the compounds of the formulae (I), (V) and (X) according to this invention were mixed with each other and pre-incubated in a 96-wells titer plate at 37° C. for 10 minutes. After the completion of the pre-incubation, to the pre-incubated mixture was added 0.01 mL of 0.025 M citrate-phosphate buffer containing α-N-acetyl-galactosaminidase originated from chicken liver (a product of Sigma Company) which was dissolved in said buffer as a glycosidase to be tested. Thereafter, the enzymatic reaction was conducted at 37° C. for 30 minutes.
After the enzymatic reaction, to the reaction solution was added 1.0 mL of 0.3M glycine—sodium hydroxide buffer (pH 10.5), in order to terminate the enzymatic reaction. Thereafter, the absorbance [designated as value (a)] of light at 405 nm of the resulting reaction solution was measured. Concurrently, measurement was made of the absorbance [designated as value (b)] at 405 nm of the reaction solution as obtained in the control test where the enzymatic reaction was conducted without addition of the test compound. Further, measurements were made of the absorbance [designated as values (a′)] and the absorbance [[designated as values (b′)] at 405 nm of the solutions as obtained in the blank test and the control test, respectively, where the enzymatic reaction was not conducted in the assay test. The rate of inhibition to […] was calculated by the equation: [1-(a-a′)/(b-b′)]×100.
The test results obtained are summarized as IC50 value in Table 1 below.
This Test Example is a test example for determining the α-galactosidase or β-galactosidase-inhibitory activity of the compound of the formula (I), (V) or (X) according to this invention.
The evaluation of the α-galactosidase or β-galactosidase-inhibitory activity was conducted according to a modification of the method described in the “Journal of Biological Chemistry”, 240, p.2468 (1965).
Namely, the test was conducted in the same manner as the test for the enzyme-inhibitory activity described in Test Example 1, but with using α-galactosidase or β-galactosidase (products of by Sigma Company) originated from Aspergillus niger, as the glycosidase enzyme, and with using p-nitrophenyl-α-D-galactoside and p-nitrophenyl-β-D-galactoside as the substrate. Furthermore, absorbances of light at 405 nm were measured in the same manner as in Test Example 1. IC50 values of the test compound capable of giving the 50% inhibition to the enzymes were calculated.

Usually IC50 stands for the concentration that gives 50% inhibition. High values mean weaker potency, low ones greater potency.

In the case of `O=C(N[C@H]1NC[C@H](CO)[C@H](O)[C@@H]1O)C(F)(F)F` [Formula (I), 6-deacetamido-3-decarboxy-3-hydroxymethyl-6-trifluoroacetamido-siastain B], the concentration for half-maximal inhibition (IC50) is 0.194 µM and the “inhibition of β-D-galactosidase, in words” value is “inhibit strongly”.

In the case of `CC(=O)NC1NCC(CO)C(O)C1O` (stereo not drawn) [Formula (V), 3-decarboxy-4-epi-3-hydroxymethyl-siastain B], the IC50 is > 490 µM.

With `O=C(N[C@H]1NC[C@H](CO)[C@@H](O)[C@@H]1O)C(F)(F)F` [Formula (X), 6-deacetamido-3-decarboxy-4-epi-3-hydroxymethyl-6-trifluoroacetamido-siastain B], the midpoint of inhibition, the IC50, lay at 232 µM and the “inhibition of β-D-galactosidase, in words” value is listed as “inhibit strongly”.
